The values below come from patent US9278874B2, “Prevention of starch degradation in pulp, paper or board making processes using zinc ions and an oxidizing biocide” (KEMIRA OYJ, priority 2011, dated 2016).

What all share (format): cell-based
In assay [1] the test system is starch degrading bacteria. In words: Prevention of starch degradation in head box stock using glutaraldehyde and zinc; remaining starch by iodine staining. Conditions: for Prevention of starch degradation (in words): 10 mg/l zinc or 5-30 mg/l glutaraldehyde alone; for Starch concentration 4 h: contact time 4 h; for Starch concentration 24 h: contact time 24 h. The protocol:
(§1) Prevention of starch degradation was studied using a non-oxidizing biocide (glutaraldehyde) and zinc. Head box stock from packaging board mill, stored at +4° C. after collecting, was amended with 0.8 g/l cooked starch and incubated overnight at 45° C. with 150 rpm shaking to induce the growth of starch degrading bacteria. The stock was divided into 30 ml portions and appropriate amounts of zinc (Zn^2+ from zinc chloride) and glutaraldehyde were added together with a new starch addition (400 mg/l). After 4 h and 24 h incubation (+45° C., 150 rpm) the remaining starch was quantified using iodine staining (Lugol-solution) at 590 nm. An external standard curve was used to convert absorbance values into starch amounts.

Assay [2] has as its system starch degrading bacteria. Kind of assay: Prevention of starch degradation in head box stock using performic acid (PFA) and zinc; remaining starch by iodine staining. Conditions: for Prevention of starch degradation (in words): 10 mg/l zinc or 20-120 mg/l PFA alone; for Starch concentration 4 h: contact time 4 h; for Starch concentration 24 h: contact time 24 h. The protocol:
as §1, with “an oxidizing” for “a non-oxidizing”, “(performic acid, PFA)” for “(glutaraldehyde)”, “PFA” for “glutaraldehyde”

Assay [3] has as its system starch degrading bacteria. Kind of assay: Prevention of starch degradation in head box stock using chlorine dioxide (ClO2) and zinc; remaining starch by iodine staining. Conditions: for Prevention of starch degradation (in words): 10 mg/l zinc or 5-20 mg/l ClO2 alone; for Starch concentration 4 h: contact time 4 h; for Starch concentration 24 h: contact time 24 h. As for the experimental part: as §1, with “an oxidizing” for “a non-oxidizing”, “(chlorine dioxide, ClO2)” for “(glutaraldehyde)”, “ClO2” for “glutaraldehyde”

For assay [4], the system named is starch degrading bacteria. Kind of assay: Prevention of starch degradation in head box stock using monochloramine (MCA) and zinc; remaining starch by iodine staining. Conditions: for Prevention of starch degradation (in words): 10 mg/l zinc or MCA alone; for Starch concentration 4 h: contact time 4 h; for Starch concentration 24 h: contact time 24 h. The protocol: as §1, with “an oxidizing” for “a non-oxidizing”, “(monochloramine, MCA)” for “(glutaraldehyde)”, “MCA” for “glutaraldehyde”

The mark [5] stands for this setting: PFA 11 mg/l (active ingredient).
The mark [6] stands for this setting: PFA 16 mg/l (active ingredient).
[7] abbreviates: Zn 10 mg/l (mg Zn2+ per l), 400 mg/l starch added.

On to `O=CCCCC=O` [GL, glutaraldehyde], for which the “Prevention of starch degradation (in words)” value (shortened to “Prevention”) in assay [1] (4 h) is on record as “prevented some of the starch degradation”; in assay [1] (24 h), “did not have marked effect”. For the same compound, the “Starch concentration 4 h” value in assay [1] (GL 5 mg/l (active substance)) was determined as 85 mg/L; in assay [1] (GL 10 mg/l (active substance)), 103 mg/L; in assay [1] (GL 20 mg/l (active substance)), 96 mg/L; in assay [1] (GL 30 mg/l (active substance)) it was 93 mg/L. Further, the “Starch concentration 24 h” value in assay [1] (GL 5 mg/l (active substance)) was determined as 3 mg/L; in assay [1] (GL 10 mg/l (active substance)), 5 mg/L; in assay [1] (GL 20 mg/l (active substance)), 4 mg/L; in assay [1] (GL 30 mg/l (active substance)), 6 mg/L.
Take `O=COO` [PFA, performic acid]: the “Prevention” value is listed as “prevented most of the starch degradation” in assay [2] (4 h) and “did not have marked effect” in assay [2] (24 h). Also, the “Starch concentration 4 h” value in assay [2] (PFA 3 mg/l (active ingredient)) stood at 114 mg/L; in assay [2] (PFA 5 mg/l (active ingredient)), 157 mg/L; in assay [2] (setting [5]) it was 208 mg/L; in assay [2] (setting [6]) it was 215 mg/L. For the same compound, the “Starch concentration 24 h” value in assay [2] (PFA 3 mg/l (active ingredient)) was determined as 3 mg/L; in assay [2] (PFA 5 mg/l (active ingredient)), 3 mg/L; in assay [2] (setting [5]) it was 5 mg/L; in assay [2] (setting [6]) it was 11 mg/L.
Consider `[O][Cl+][O-]` [ClO2, chlorine dioxide], for which the “Prevention” value in assay [3] (4 h) is given as “prevented most of the starch degradation”; in assay [3] (24 h), “did not have marked effect”. Moreover, the “Starch concentration 4 h” value in assay [3] (ClO2 5 mg/l) came out at 128 mg/L; in assay [3] (ClO2 9 mg/l), 153 mg/L; in assay [3] (ClO2 14 mg/l), 197 mg/L; in assay [3] (ClO2 20 mg/l), 227 mg/L. Besides, the “Starch concentration 24 h” value in assay [3] (ClO2 5 mg/l) was 5 mg/L; in assay [3] (ClO2 9 mg/l), 12 mg/L; in assay [3] (ClO2 14 mg/l), 13 mg/L; in assay [3] (ClO2 20 mg/l) it was 19 mg/L.
For the compound `[Cl-].[Cl-].[Zn+2]` [Zn, zinc chloride], the “Prevention” value in assay [3] (4 h) is reported as “prevented most of the starch degradation”; in assay [3] (24 h), “did not have marked effect”; in assay [4] (4 h), “prevented most of the starch degradation”; in assay [4] (24 h), “did not have any effect”; in assay [1] (4 h) it was “prevented some of the starch degradation”; in assay [1] (24 h), “did not have marked effect”. The “Prevention” value in assay [2] (4 h) is recorded as “prevented most of the starch degradation”; in assay [2] (24 h), “did not have marked effect”. Also, the “Starch concentration 4 h” value in assay [3] (Zn 10 mg/l (mg Zn2+ per l)) was 219 mg/L; in assay [4] (setting [7]), 177 mg/L; in assay [1] (Zn 10 mg/l (mg Zn2+ per l)), 193 mg/L; in assay [2] (Zn 10 mg/l (mg Zn2+ per l)), 181 mg/L. Besides, the “Starch concentration 24 h” value is 28 mg/L in assay [3] (Zn 10 mg/l (mg Zn2+ per l)), 8 mg/L in assay [4] (setting [7]), 21 mg/L in assay [1] (Zn 10 mg/l (mg Zn2+ per l)) and 38 mg/L in assay [2] (Zn 10 mg/l (mg Zn2+ per l)).
On to `NCl` [MCA, monochloramine], for which the “Prevention” value in assay [4] (4 h) was “prevented most of the starch degradation”; in assay [4] (24 h), “did not have any effect”. In addition, the entries for the “Starch concentration 4 h” value in assay [4] (MCA 10 mg/l (active chlorine)) and in assay [4] (MCA 20 mg/l (active chlorine)) were 158 mg/L and 189 mg/L, respectively. Further, the “Starch concentration 24 h” value in assay [4] (MCA 10 mg/l (active chlorine)) is 5 mg/L; in assay [4] (MCA 20 mg/l (active chlorine)), 41 mg/L.
